Assay results taken from publication PMC11773056, “The zymogenic form of SARS-CoV-2 main protease: A discrete target for drug discovery” (The Journal of Biological Chemistry, 2024).

Target: T1, M^pro expressed from mCherry-repM^pro-eGFP (total protease, all forms) (Severe acute respiratory syndrome coronavirus 2, UniProt P0DTD1)
T1 construct: gene rep
Test: cell-based
Details: read-out: HEK293T cells, reporter mCherry-repM^pro-eGFP / Total inhibition EC50

Compound `O=C(Oc1cncc(C(F)(F)F)c1)c1cccc2[nH]ccc12` [compound 1, Compound 1] has an EC50 of 12.1 ± 2.8 µM.
